Experimental data: PubChem BioAssay AID1259407 (Chemical Carcinogenesis Research Information System (CCRIS), 2018)
“Also recorded” adds a separate entry of the source. The source made the active and inactive calls. The rule behind the calls is not given here.

System: CCRIS mutagenicity, Ames/micronucleus/aberration tests
Assay: CCRIS mutagenicity studies
[1] = Test System: AMES SALMONELLA TYPHIMURIUM, Strain/Indicator: TA98, Metabolic Activation: NONE, Method: PREINCUBATION
[2] = Test System: AMES SALMONELLA TYPHIMURIUM, Strain/Indicator: TA98, Metabolic Activation: NONE, Method: STANDARD PLATE
[3] = Test System: AMES SALMONELLA TYPHIMURIUM, Strain/Indicator: TA100, Metabolic Activation: NONE, Method: PREINCUBATION
[4] = Test System: AMES SALMONELLA TYPHIMURIUM, Strain/Indicator: TA100, Metabolic Activation: NONE, Method: STANDARD PLATE

For `Cc1ccc(C(=O)c2cc(O)c(O)c([N+](=O)[O-])c2)cc1`, the mutagenic call (Test System: AMES SALMONELLA TYPHIMURIUM, Strain/Indicator: TA97, Metabolic Activation: NONE, Method: PREINCUBATION) was “inactive; negative”, the mutagenic call (Test System: AMES SALMONELLA TYPHIMURIUM, Strain/Indicator: TA97, Metabolic Activation: NONE, Method: STANDARD PLATE) was “inactive; negative” and the mutagenic call (Test System: AMES SALMONELLA TYPHIMURIUM, Strain/Indicator: TA97, Metabolic Activation: RAT, LIVER, S-9, PHENOBARBITAL AND BETA-NAPHTHOFLAVONE, Method: PREINCUBATION) was “inactive; negative”. The mutagenic call (Test System: AMES SALMONELLA TYPHIMURIUM, Strain/Indicator: TA97, Metabolic Activation: RAT, LIVER, S-9, PHENOBARBITAL AND BETA-NAPHTHOFLAVONE, Method: STANDARD PLATE) was “inactive; negative”, the mutagenic call [1] was “inactive; negative” and the mutagenic call [2] was “inactive; negative”. For the same molecule, the mutagenic call (Test System: AMES SALMONELLA TYPHIMURIUM, Strain/Indicator: TA98, Metabolic Activation: RAT, LIVER, S-9, PHENOBARBITAL AND BETA-NAPHTHOFLAVONE, Method: PREINCUBATION) was “inactive; negative”, the mutagenic call (Test System: AMES SALMONELLA TYPHIMURIUM, Strain/Indicator: TA98, Metabolic Activation: RAT, LIVER, S-9, PHENOBARBITAL AND BETA-NAPHTHOFLAVONE, Method: STANDARD PLATE) was “inactive; negative” and the mutagenic call [3] was “inactive; negative”. For the same molecule, the mutagenic call [4] was “inactive; negative”, the mutagenic call (Test System: AMES SALMONELLA TYPHIMURIUM, Strain/Indicator: TA100, Metabolic Activation: RAT, LIVER, S-9, PHENOBARBITAL AND BETA-NAPHTHOFLAVONE, Method: PREINCUBATION) was “inactive; negative” and the mutagenic call (Test System: AMES SALMONELLA TYPHIMURIUM, Strain/Indicator: TA100, Metabolic Activation: RAT, LIVER, S-9, PHENOBARBITAL AND BETA-NAPHTHOFLAVONE, Method: STANDARD PLATE) was “inactive; negative”. For the same molecule, the mutagenic call (Test System: AMES SALMONELLA TYPHIMURIUM, Strain/Indicator: TA102, Metabolic Activation: NONE, Method: PREINCUBATION) was “inactive; negative”, the mutagenic call (Test System: AMES SALMONELLA TYPHIMURIUM, Strain/Indicator: TA102, Metabolic Activation: NONE, Method: STANDARD PLATE) was “inactive; negative” and the mutagenic call (Test System: AMES SALMONELLA TYPHIMURIUM, Strain/Indicator: TA102, Metabolic Activation: RAT, LIVER, S-9, PHENOBARBITAL AND BETA-NAPHTHOFLAVONE, Method: PREINCUBATION) was “inactive; negative”. The mutagenic call (Test System: AMES SALMONELLA TYPHIMURIUM, Strain/Indicator: TA102, Metabolic Activation: RAT, LIVER, S-9, PHENOBARBITAL AND BETA-NAPHTHOFLAVONE, Method: STANDARD PLATE) was “inactive; negative”, the mutagenic call (Test System: AMES SALMONELLA TYPHIMURIUM, Strain/Indicator: TA1535, Metabolic Activation: NONE, Method: PREINCUBATION) was “inactive; negative” and the mutagenic call (Test System: AMES SALMONELLA TYPHIMURIUM, Strain/Indicator: TA1535, Metabolic Activation: NONE, Method: STANDARD PLATE) was “inactive; negative”. For the same molecule, the mutagenic call (Test System: AMES SALMONELLA TYPHIMURIUM, Strain/Indicator: TA1535, Metabolic Activation: RAT, LIVER, S-9, PHENOBARBITAL AND BETA-NAPHTHOFLAVONE, Method: PREINCUBATION) was “inactive; negative”, the mutagenic call (Test System: AMES SALMONELLA TYPHIMURIUM, Strain/Indicator: TA1535, Metabolic Activation: RAT, LIVER, S-9, PHENOBARBITAL AND BETA-NAPHTHOFLAVONE, Method: STANDARD PLATE) was “inactive; negative” and the mutagenic call (Test System: AMES SALMONELLA TYPHIMURIUM, Strain/Indicator: TA1537, Metabolic Activation: NONE, Method: PREINCUBATION) was “inactive; negative”. For the same molecule, the mutagenic call (Test System: AMES SALMONELLA TYPHIMURIUM, Strain/Indicator: TA1537, Metabolic Activation: NONE, Method: STANDARD PLATE) was “inactive; negative”, the mutagenic call (Test System: AMES SALMONELLA TYPHIMURIUM, Strain/Indicator: TA1537, Metabolic Activation: RAT, LIVER, S-9, PHENOBARBITAL AND BETA-NAPHTHOFLAVONE, Method: PREINCUBATION) was “inactive; negative” and the mutagenic call (Test System: AMES SALMONELLA TYPHIMURIUM, Strain/Indicator: TA1537, Metabolic Activation: RAT, LIVER, S-9, PHENOBARBITAL AND BETA-NAPHTHOFLAVONE, Method: STANDARD PLATE) was “inactive; negative”. The mutagenic call (Test System: AMES SALMONELLA TYPHIMURIUM, Strain/Indicator: TA1538, Metabolic Activation: NONE, Method: PREINCUBATION) was “inactive; negative”, the mutagenic call (Test System: AMES SALMONELLA TYPHIMURIUM, Strain/Indicator: TA1538, Metabolic Activation: NONE, Method: STANDARD PLATE) was “inactive; negative” and the mutagenic call (Test System: AMES SALMONELLA TYPHIMURIUM, Strain/Indicator: TA1538, Metabolic Activation: RAT, LIVER, S-9, PHENOBARBITAL AND BETA-NAPHTHOFLAVONE, Method: PREINCUBATION) was “inactive; negative”. The mutagenic call (Test System: AMES SALMONELLA TYPHIMURIUM, Strain/Indicator: TA1538, Metabolic Activation: RAT, LIVER, S-9, PHENOBARBITAL AND BETA-NAPHTHOFLAVONE, Method: STANDARD PLATE) was “inactive; negative”, the mutagenic call (Test System: CHINESE HAMSTER V-79, Strain/Indicator: V-79 (HPRT)/6-THIOGUANINE, Metabolic Activation: NONE, Method: SUSPENSION/PLATE) was “inactive; negative” and the mutagenic call (Test System: CHINESE HAMSTER V-79, Strain/Indicator: V-79 (HPRT)/6-THIOGUANINE, Metabolic Activation: RAT, LIVER, S-9, AROCLOR 1254, Method: SUSPENSION/PLATE) was “inactive; negative”. For the same molecule, the mutagenic call (Test System: E. COLI, Strain/Indicator: WP2 UVRA, Metabolic Activation: NONE, Method: PREINCUBATION) was “inactive; negative”, the mutagenic call (Test System: E. COLI, Strain/Indicator: WP2 UVRA, Metabolic Activation: NONE, Method: STANDARD PLATE) was “inactive; negative” and the mutagenic call (Test System: E. COLI, Strain/Indicator: WP2 UVRA, Metabolic Activation: RAT, LIVER, S-9, PHENOBARBITAL AND BETA-NAPHTHOFLAVONE, Method: PREINCUBATION) was “inactive; negative”. For the same molecule, the mutagenic call (Test System: E. COLI, Strain/Indicator: WP2 UVRA, Metabolic Activation: RAT, LIVER, S-9, PHENOBARBITAL AND BETA-NAPHTHOFLAVONE, Method: STANDARD PLATE) was “inactive; negative” and the mutagenic call (Test System: UDS RAT HEPATOCYTES, Strain/Indicator: THY INCORP, Metabolic Activation: NONE, Method: AUTORADIOGRAPHY) was “inactive; negative”.
With `CCCOc1cc2c(c3ccc4ccccc4c13)CCC2=O` the mutagenic call (Test System: AMES SALMONELLA TYPHIMURIUM, Strain/Indicator: TA100, Metabolic Activation: RAT, LIVER, S-9, AROCLOR 1254, Method: STANDARD PLATE) was “inactive; negative”.
With `[Pt+2].[S-]CCCCl.[S-]CCCCl` the mutagenic call (Test System: AMES SALMONELLA TYPHIMURIUM, Strain/Indicator: TA92, Metabolic Activation: NONE, Method: STANDARD PLATE) was “inactive; negative”, the mutagenic call [2] was “inactive; negative” and the mutagenic call [4] was “active; positive”. The mutagenic call (Test System: AMES SALMONELLA TYPHIMURIUM, Strain/Indicator: TA2410, Metabolic Activation: NONE, Method: STANDARD PLATE) was “active; positive”.
In the case of `COc1ccc2nc(S(=O)Cc3ncc(C)c(OC)c3C)[nH]c2c1` (centres undefined), the mutagenic call (End Point: IN VITRO MICRONUCLEUS, Test System: AHH-1 CELLS, Metabolic Activation: NONE) is reported as “active; positive”, the mutagenic call (End Point: IN VITRO MICRONUCLEUS, Test System: HEPATOCYTES, Species: RAT, Strain/Sex: SPRAGUE-DAWLEY/FEMALE, Metabolic Activation: NONE) is reported as “active; positive; at 33 mg dose in 50% of rats” and the mutagenic call (End Point: IN VITRO MICRONUCLEUS, Test System: HUMAN LYMPHOCYTES, Metabolic Activation: NONE) is reported as “active; positive (in 4/5 donors); also recorded: active; positive; only at 18 ug/ml and 1 of 2 donors”. The mutagenic call (End Point: IN VITRO MICRONUCLEUS, Test System: MCL-5 CELLS, Metabolic Activation: NONE) was “active; positive”, the mutagenic call (End Point: IN VIVO MICRONUCLEUS, Test System: BONE MARROW POLYCHROMATIC ERYTHROCYTES, Species: RAT, Strain/Sex: SPRAGUE-DAWLEY/FEMALE, Route: ORAL) was “inactive; negative; some increase but not statistically significant” and the mutagenic call (End Point: IN VIVO MICRONUCLEUS, Test System: HEPATOCYTES, Species: RAT, Strain/Sex: SPRAGUE-DAWLEY/FEMALE, Route: ORAL) was “active; positive”.
For `COc1ccc2c(ccc3oc([N+](=O)[O-])cc32)c1`, the mutagenic call (Test System: AMES SALMONELLA TYPHIMURIUM, Strain/Indicator: TA100(NR), Metabolic Activation: NONE, Method: STANDARD PLATE) was “active; positive” and the mutagenic call [4] was “active; positive”.
In the case of `CC(=O)Nc1cccc2cccnc12`, the mutagenic call [1] is reported as “inactive; negative”, the mutagenic call (Test System: AMES SALMONELLA TYPHIMURIUM, Strain/Indicator: TA98, Metabolic Activation: RAT, LIVER, S-9, KANECHLOR 500, Method: PREINCUBATION) is reported as “inactive; negative” and the mutagenic call [3] is reported as “inactive; negative”. For the same molecule, the mutagenic call (Test System: AMES SALMONELLA TYPHIMURIUM, Strain/Indicator: TA100, Metabolic Activation: RAT, LIVER, S-9, KANECHLOR 500, Method: PREINCUBATION) was “active; positive”, the mutagenic call (Test System: AMES SALMONELLA TYPHIMURIUM, Strain/Indicator: TA100, Metabolic Activation: RAT, LIVER, S-9, PHENOBARBITAL AND 5,6-BENZOFLAVONE, Method: PREINCUBATION) was “active; positive” and the mutagenic call (Test System: AMES SALMONELLA TYPHIMURIUM, Strain/Indicator: TA100, Metabolic Activation: S-9, Method: PREINCUBATION) was “active; positive”.
